Laboratory results: patent US10125138B2, “Triazolotriazinone derivatives having activity a s herbicides” (Syngenta Participations AG, priority 2015, dated 2018)

Assays:
Assay type in all cases: in vivo
Lolium perenne (LOLPE) [1] = experiment: Pre-emergence glasshouse herbicide test, Lolium perenne; details: evaluated after 13 days, five point scale
Experimental: (§1) Seeds of a variety of test species are sown in standard soil in pots (Lolium perenne (LOLPE), Solanum nigrum (SOLNI), Amaranthus retoflexus (AMARE), Setaria faberi (SETFA), Echinochloa crus-galli (ECHCG), Ipomoea hederacea (IPOHE)). After cultivation for one day (pre-emergence) or after 8 days cultivation (post-emergence) under controlled conditions in a glasshouse (at 24/16° C., day/night; 14 hours light; 65% humidity), the plants are sprayed with an aqueous spray solution derived from the formulation of the technical active ingredient in acetone/water (50:50) solution containing 0.5% Tween 20 (polyoxyethelyene sorbitan monolaurate, CAS RN 9005-64-5). […] The test plants are then grown in a glasshouse under controlled conditions in a glasshouse (at 24/16° C., day/night; 14 hours light; 65% humidity) and watered twice daily. After 13 days for pre and post-emergence, the test is evaluated for the percentage damage caused to the plant. The biological activities are shown in the following table on a five point scale (5=80-100%; 4=60-79%; 3=40-59%; 2=20-39%; 1=0-19%).

Solanum nigrum (SOLNI) [2] = experiment: Pre-emergence glasshouse herbicide test, Solanum nigrum; details: 1000 g/h, evaluated after 13 days, five point scale
Experimental: (§2) Seeds of a variety of test species are sown in standard soil in pots (Lolium perenne (LOLPE), Solanum nigrum (SOLNI), Amaranthus retoflexus (AMARE), Setaria faberi (SETFA), Echinochloa crus-galli (ECHCG), Ipomoea hederacea (IPOHE)). After cultivation for one day (pre-emergence) or after 8 days cultivation (post-emergence) under controlled conditions in a glasshouse (at 24/16° C., day/night; 14 hours light; 65% humidity), the plants are sprayed with an aqueous spray solution derived from the formulation of the technical active ingredient in acetone/water (50:50) solution containing 0.5% Tween 20 (polyoxyethelyene sorbitan monolaurate, CAS RN 9005-64-5). Compounds are applied at 1000 g/h. The test plants are then grown in a glasshouse under controlled conditions in a glasshouse (at 24/16° C., day/night; 14 hours light; 65% humidity) and watered twice daily. After 13 days for pre and post-emergence, the test is evaluated for the percentage damage caused to the plant. The biological activities are shown in the following table on a five point scale (5=80-100%; 4=60-79%; 3=40-59%; 2=20-39%; 1=0-19%).

[3] = test system: Amaranthus retoflexus (AMARE); experiment: Pre-emergence glasshouse herbicide test, Amaranthus retoflexus; details: evaluated after 13 days, five point scale
Experimental: as §1

Setaria faberi (SETFA) [4] = experiment: Post-emergence glasshouse herbicide test, Setaria faberi; details: evaluated after 13 days, five point scale
Experimental: as §1

Solanum nigrum (SOLNI) [5] = experiment: Post-emergence glasshouse herbicide test, Solanum nigrum; details: 1000 g/h, evaluated after 13 days, five point scale
Experimental: as §2

Setaria faberi (SETFA) [6] = experiment: Pre-emergence glasshouse herbicide test, Setaria faberi; details: evaluated after 13 days, five point scale
Experimental: as §1

Lolium perenne (LOLPE) [7] = experiment: Post-emergence glasshouse herbicide test, Lolium perenne; details: evaluated after 13 days, five point scale
Experimental: as §1

[8] = test system: Ipomoea hederacea (IPOHE); experiment: Pre-emergence glasshouse herbicide test, Ipomoea hederacea; details: evaluated after 13 days, five point scale
Experimental: as §1

[9] = test system: Echinochloa crus-galli (ECHCG); experiment: Pre-emergence glasshouse herbicide test, Echinochloa crus-galli; details: evaluated after 13 days, five point scale
Experimental: as §1

[10] = test system: Ipomoea hederacea (IPOHE); experiment: Post-emergence glasshouse herbicide test, Ipomoea hederacea; details: evaluated after 13 days, five point scale
Experimental: as §1

[11] = test system: Echinochloa crus-galli (ECHCG); experiment: Post-emergence glasshouse herbicide test, Echinochloa crus-galli; details: evaluated after 13 days, five point scale
Experimental: as §1

[12] = test system: Amaranthus retoflexus (AMARE); experiment: Post-emergence glasshouse herbicide test, Amaranthus retoflexus; details: evaluated after 13 days, five point scale
Experimental: as §1

Row | SMILES | percentage damage caused to the plant, PRE Application AMARE ([3]; 1000 g/h) | percentage damage caused to the plant, POST Application SETFA (Setaria faberi (SETFA) [4]; 1000 g/h) | percentage damage caused to the plant, PRE Application SETFA (Setaria faberi (SETFA) [6]; 1000 g/h) | percentage damage caused to the plant, PRE Application IPOHE ([8]; 1000 g/h) | percentage damage caused to the plant, PRE Application ECHCG ([9]; 1000 g/h) | percentage damage caused to the plant, POST Application IPOHE ([10]; 1000 g/h) | percentage damage caused to the plant, POST Application ECHCG ([11]; 1000 g/h) | percentage damage caused to the plant, POST Application AMARE ([12]; 1000 g/h) | also measured
1 | Cn1nnnc1NC(=O)c1nn2cnn(-c3ccccc3)c2nc1=O [Compound 1.001] | 5 (5=80-100%) | 5 (5=80-100%) | 5 (5=80-100%) | 4 (4=60-79%) | 5 (5=80-100%) | 5 (5=80-100%) | 5 (5=80-100%) | 5 (5=80-100%) | percentage damage caused to the plant, PRE Application LOLPE (Lolium perenne (LOLPE) [1]; 1000 g/h): 3 (3=40-59%); percentage damage caused to the plant, PRE Application SOLNI (Solanum nigrum (SOLNI) [2]): 5 (5=80-100%); percentage damage caused to the plant, POST Application SOLNI (Solanum nigrum (SOLNI) [5]): 5 (5=80-100%); percentage damage caused to the plant, POST Application LOLPE (Lolium perenne (LOLPE) [7]; 1000 g/h): 3 (3=40-59%)
2 | O=C1CCCC(=O)C1C(=O)c1nn2cnn(-c3ccccc3)c2nc1=O [Compound 4.001] |  |  |  |  |  |  |  |  | percentage damage caused to the plant, PRE Application LOLPE (Lolium perenne (LOLPE) [1]; applied at 250 g/ha): 2 (2=20-39%); percentage damage caused to the plant, PRE Application AMARE ([3]; applied at 250 g/ha): 5 (5=80-100%); percentage damage caused to the plant, POST Application SETFA (Setaria faberi (SETFA) [4]; applied at 250 g/ha): 5 (5=80-100%); percentage damage caused to the plant, PRE Application SETFA (Setaria faberi (SETFA) [6]; applied at 250 g/ha): 1 (1=0-19%); percentage damage caused to the plant, POST Application LOLPE (Lolium perenne (LOLPE) [7]; applied at 250 g/ha): 1 (1=0-19%); percentage damage caused to the plant, PRE Application IPOHE ([8]; applied at 250 g/ha): 1 (1=0-19%); percentage damage caused to the plant, PRE Application ECHCG ([9]; applied at 250 g/ha): 5 (5=80-100%); percentage damage caused to the plant, POST Application IPOHE ([10]; applied at 250 g/ha): 5 (5=80-100%); percentage damage caused to the plant, POST Application ECHCG ([11]; applied at 250 g/ha): 5 (5=80-100%); percentage damage caused to the plant, POST Application AMARE ([12]; applied at 250 g/ha): 5 (5=80-100%)
3 | Cc1cccc(-n2ncn3nc(C(=O)C4C(=O)CC(C)CC4=O)c(=O)nc23)c1 (stereo not drawn) [Compound 6.001] | 5 (5=80-100%) | 5 (5=80-100%) | 4 (4=60-79%) | 5 (5=80-100%) | 5 (5=80-100%) | 5 (5=80-100%) | 5 (5=80-100%) | 5 (5=80-100%) | 
4 | O=C1CCCC(=O)C1C(=O)c1nn2cnn(-c3cccc(Cl)c3)c2nc1=O [Compound 4.009] | 5 (5=80-100%) | 5 (5=80-100%) | 5 (5=80-100%) | 5 (5=80-100%) | 5 (5=80-100%) | 5 (5=80-100%) | 5 (5=80-100%) | 5 (5=80-100%) | 
5 | O=C1CCCC(=O)C1C(=O)c1nn2cnn(-c3ccc(C(F)(F)F)cc3)c2nc1=O [Compound 4.008] | 5 (5=80-100%) | 5 (5=80-100%) | 5 (5=80-100%) | 5 (5=80-100%) | 5 (5=80-100%) | 5 (5=80-100%) | 5 (5=80-100%) | 4 (4=60-79%) | 
6 | CCn1nnnc1NC(=O)c1nn2cnn(-c3cccc(C)c3)c2nc1=O [Compound 1.046] | 5 (5=80-100%) | 5 (5=80-100%) | 5 (5=80-100%) | 5 (5=80-100%) | 5 (5=80-100%) | 5 (5=80-100%) | 5 (5=80-100%) | 5 (5=80-100%) | 
